Reference: the supplement of paper PMC10307832

Key:
Experiment in all cases: relative viability (nuclei count vs DMSO), 5 days (fraction); higher = more cells survive
[1] = compound: C1CNCCC1C2=CC(=NN2)C3=CC=NC=C3 + CC(C)C[C@H](NC(=O)[C@H](Cc1ccccc1)NC(=O)c1cnccn1)B(O)O [Bortezomib] (partner 0.002 µM)
How it was run: (§1)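 Each reported value is a median over duplicate plates. It expresses relative viability: treated-well nuclei count divided by vehicle-well nuclei count. Lung cancer cell lines in 1536-well plates were dosed by pin tool a day after seeding, alone with one drug or with a fixed anchor-drug dose plus five library-drug doses (not always all listed) in √10 steps, and nuclei were counted after 5 days.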

[2] = compound: C[C@@H](N)c1ccc(C(=O)Nc2ccnc3[nH]ccc23)cc1 + CC(C)C[C@H](NC(=O)[C@H](Cc1ccccc1)NC(=O)c1cnccn1)B(O)O [Bortezomib] (partner 0.002 µM)
How it was run: as §1

[3] = compound: C[C@@H](N)c1ccc(C(=O)Nc2ccnc3[nH]ccc23)cc1 + C[C@@H](Oc1cc(-c2cnn(C3CCNCC3)c2)cnc1N)c1c(Cl)ccc(F)c1Cl [Crizotinib] (partner 1 µM)
How it was run: as §1

[4] = compound: C[C@@H](N)c1ccc(C(=O)Nc2ccnc3[nH]ccc23)cc1 + Cc1nc(Nc2ncc(C(=O)Nc3c(C)cccc3Cl)s2)cc(N2CCN(CCO)CC2)n1 [Dasatinib] (partner 0.075 µM)
How it was run: as §1

| Cell Line | relative viability ([1]; first compound 0.08 µM) | relative viability ([1]; first compound 0.8 µM) | relative viability ([1]; first compound 2.53 µM) | relative viability ([1]; first compound 8 µM) | relative viability ([2]; first compound 0.04 µM) | relative viability ([2]; first compound 0.1265 µM) | relative viability ([2]; first compound 0.4 µM) | relative viability ([2]; first compound 4 µM) | relative viability ([3]; first compound 0.04 µM) | relative viability ([3]; first compound 0.1265 µM) | relative viability ([3]; first compound 0.4 µM) | relative viability ([3]; first compound 4 µM) | relative viability ([4]; first compound 0.04 µM) | relative viability ([4]; first compound 0.1265 µM) | relative viability ([4]; first compound 0.4 µM) | relative viability ([4]; first compound 4 µM) | relative viability ([2]; first compound 1.265 µM) | relative viability ([3]; first compound 1.265 µM) | relative viability ([4]; first compound 1.265 µM) |
| --- | --- | --- | --- | --- | --- | --- | --- | --- | --- | --- | --- | --- | --- | --- | --- | --- | --- | --- | --- |
| NCI-H23 | 0.729 | 0.866 | 1.1 | 1.24 | 1.21 | 1.17 | 1.11 | 1.03 | 0.589 | 0.571 | 0.619 | 0.511 | 0.77 | 0.736 | 0.862 | 0.76 |  |  |  |
| ABC-1 | 0.329 | 0.253 | 0.332 | 0.351 | 0.289 | 0.308 | 0.333 | 0.319 | 1.47 | 1.19 | 1.4 | 0.857 | 0.577 | 0.552 | 0.648 | 0.445 | 0.272 | 1.6 | 0.507 |
| 201T | 1.06 | 1.07 | 1.08 | 1.1 | 1.09 | 1.08 | 1.11 | 1.25 | 1.02 | 1.02 | 0.959 | 1.1 | 0.667 | 0.635 | 0.674 | 0.808 | 1.17 | 1.09 | 0.738 |
| NCI-H1734 | 0.97 | 1.04 | 1.21 | 1.03 | 0.847 | 0.915 | 0.911 | 0.759 | 0.669 | 0.719 | 0.653 | 0.575 | 0.347 | 0.445 | 0.38 | 0.351 |  |  | 0.284 |
| NCI-H520 | 0.365 | 0.558 | 0.559 | 0.573 | 0.756 | 0.716 | 0.628 | 0.54 | 0.824 | 0.852 | 0.801 | 0.804 | 0.212 | 0.205 | 0.181 | 0.196 | 0.638 | 1.05 | 0.219 |
| NCI-H1650 | 0.212 | 0.184 | 0.214 | 0.204 | 0.227 | 0.199 | 0.221 | 0.203 | 1.04 | 1.12 | 1.04 | 0.763 | 0.42 | 0.402 | 0.428 | 0.311 | 0.205 | 0.911 | 0.39 |
| NCI-H1355 | 1.23 | 1.22 | 1.27 | 1.26 | 1.04 | 1.22 | 1.35 | 1.26 | 1.04 | 1.09 | 1.19 | 0.941 | 0.516 | 0.738 | 0.764 | 0.427 |  |  | 0.671 |
| NCI-H1915 | 1 | 0.977 | 0.932 | 0.934 | 0.988 | 1.01 | 1.01 | 0.823 | 0.911 | 0.886 | 0.929 | 0.81 | 0.315 | 0.262 | 0.276 | 0.308 |  |  |  |
| BEN | 0.724 | 0.592 | 0.852 | 0.96 | 0.765 | 0.736 | 0.875 | 0.457 | 0.952 | 0.828 | 0.918 | 0.675 | 0.245 | 0.252 | 0.396 | 0.265 | 0.909 | 1.09 | 0.319 |
| NCI-H3122 | 0.989 | 1.04 | 1.04 | 0.965 | 1.05 | 0.979 | 1.04 | 0.912 | 0.286 | 0.295 | 0.264 | 0.303 | 1.06 | 0.882 | 0.919 | 0.915 | 1 | 0.346 | 0.455 |
| HOP-62 | 0.479 | 0.84 | 1.15 | 0.728 | 0.983 | 0.62 | 0.675 | 0.922 | 0.685 | 0.798 | 0.908 | 0.709 | 0.435 | 0.632 | 0.617 | 0.303 | 0.49 | 0.853 | 0.515 |
| HCC-366 | 0.856 | 1.11 | 1.08 | 1.04 | 1.16 | 1.08 | 1.15 | 1.15 | 0.71 | 0.536 | 0.683 | 0.483 | 0.544 | 0.621 | 0.483 | 0.508 |  |  |  |
| NCI-H2347 | 0.937 | 0.951 | 1.05 | 0.969 | 0.955 | 1.02 | 1.08 | 1.09 | 0.668 | 0.775 | 0.776 | 0.605 | 0.54 | 0.314 | 0.374 | 0.574 |  | 0.714 |  |
| NCI-H1563 | 0.744 | 0.853 | 0.917 | 0.977 | 0.776 | 0.798 | 0.777 | 0.897 | 0.981 | 0.794 | 0.753 | 0.934 | 0.49 | 0.462 | 0.486 | 0.465 | 0.699 | 0.883 | 0.377 |
| LXF-289 | 1.05 | 1.14 | 0.968 | 0.962 | 1.01 | 0.976 | 1.07 | 0.952 | 0.846 | 0.784 | 0.883 | 0.715 | 0.105 | 0.234 | 0.185 | 0.116 | 1.05 | 0.915 | 0.11 |
| LU99A | 1.1 | 1.26 | 1.35 | 1.08 | 0.947 | 1.23 | 1.23 | 0.78 | 0.55 | 0.558 | 0.58 | 0.47 |  | 0.507 | 0.536 | 0.508 | 0.88 | 0.462 | 0.495 |
| PC-14 | 0.897 | 0.951 | 0.945 | 0.789 | 0.832 | 0.836 | 0.874 | 0.755 | 0.846 | 0.871 | 0.921 | 0.657 | 0.216 | 0.29 | 0.246 | 0.131 | 0.923 | 0.8 | 0.206 |
| NCI-H2085 | 0.975 | 0.736 | 1.11 | 1.03 | 0.882 | 1 | 0.979 | 0.842 | 0.914 | 0.917 | 0.786 | 0.718 | 0.294 | 0.322 | 0.421 | 0.391 | 0.996 | 0.749 | 0.33 |
